Data published in PMC2633036, “Identifying Tumor Cell Growth Inhibitors by Combinatorial Chemistry and Zebrafish Assays” (PLoS ONE, 2009).

Target: T1, CDK2 (Homo sapiens, UniProt P24941)
T1 construct: CDK2/GST-Cyclin E kinase complex produced in baculovirus expression system; with Cyclin E (GST-Cyclin E)
Assay: radiometric kinase assay (gamma-32P-ATP, histone H1 substrate) with purified recombinant CDK2/cyclin E
Format: biochemical

| IC50 [µM] | SMILES |
| --- | --- |
| ~100 | O=c1[nH]c2c(nc3ccccn32)c2ccccc12 [13-1-a] |
| 1 to 2 | O=c1[nH]c2c(nc3ccccn32)c2cccc(O)c12 [13-1-e] |
